≈ marks a conversion by molar mass, not a printed value. Read-outs that look alike come from different tables or passages of the source.
Assays:
E. faecalis GC 2265 = experiment: MIC, broth microdilution; conditions: Enterococcus faecalis
S. aureus GC 6469 = experiment: MIC, broth microdilution; conditions: Staphylococcus aureus
E. coli GC 2233 = experiment: MIC, broth microdilution; conditions: Escherichia coli
E. faecium GC 4556 = experiment: MIC, broth microdilution; conditions: Enterococcus faecium
E. coli GC 1073 = experiment: MIC, broth microdilution; conditions: Escherichia coli
E. faecium GC 2243 = experiment: MIC, broth microdilution; conditions: Enterococcus faecium
E. faecalis GC 4555 = experiment: MIC, broth microdilution; conditions: Enterococcus faecalis
S. pyogenes GC 4563 = experiment: MIC, broth microdilution; conditions: Streptococcus pyogenes
E. coli GC 2236 = experiment: MIC, broth microdilution; conditions: Escherichia coli
S. typhimurium GC 2172 = experiment: MIC, broth microdilution; conditions: Salmonella enterica, TYPHIMURIUM
Staph. = experiment: Range of MIC for Staph. strains, including MRSA; conditions: Staphylococcus aureus
S. aureus GC 1079 = experiment: MIC, broth microdilution; conditions: Staphylococcus aureus
E. coli GC 2270 = experiment: MIC, broth microdilution; conditions: Escherichia coli
E. coli = experiment: Range of MIC for E. coli strains; conditions: Escherichia coli
c. albicans GC 3066 = experiment: MIC, broth microdilution
S. aureus GC 6335 = experiment: MIC, broth microdilution; conditions: Staphylococcus aureus
E. coli GC 2271 = experiment: MIC, broth microdilution; conditions: Escherichia coli
E. coli GC 2235 = experiment: MIC, broth microdilution; conditions: Escherichia coli
Description: Antimicrobial susceptibility testing. The in vitro activities of the antibiotics are determined by the broth microdilution method as recommended by the National Committee for Clinical Laboratory Standards (NCCLS) (1). Mueller-Hinton II broth (MHBII)(BBL Cockeysville, Md.) is the medium employed in the testing procedures. Microtiter plates containing serial dilutions of each antimicrobial agent are inoculated with each organism to yield the appropriate density (10^5 CFU/ml) in a 100 μl final volume. The plates are incubated for 18-22 hours at 35° C. in ambient air.
Representative compounds were first incubated in mouse serum for an hour prior to the in vitro testing against a panel of selected gram-positive and gram-negative bacteria strains. All compounds were also pre-incubated in water for an hour prior to testing as control. Representative compounds of Formula I were incubated in human serum prior to MIC determination.

S. agalactiae GC 4564 = experiment: MIC, broth microdilution; conditions: Streptococcus agalactiae
E. coli GC 3226 = experiment: MIC, broth microdilution; conditions: Escherichia coli

SMILES: CN(C)c1cc(NC(=O)CN(C(=O)OCOC(=O)C2CCCCC2)C(C)(C)C)c(O)c2c1C[C@H]1C[C@H]3[C@H](N(C)C)C(O)=C(C(N)=O)C(=O)[C@@]3(O)C(O)=C1C2=O [Example 50, ({[(2-{[(5aR,6aS,7S,10aS)-9-(aminocarbonyl)-4,7-bis(dimethylamino)-1,8,10a,11-tetrahydroxy-10,12-dioxo-5,5a,6,6a,7,10,10a,12-octahydrotetracen-2-yl]amino}-2-oxoethyl)(tert-butyl)amino]carbonyl}oxy)methyl cyclohexanecarboxylate]
- MIC (E. faecalis GC 2265; GC2265, read-out: MINIMAL INHIBITORY CONCENTRATION MIC, Human Serum): 2 µg/mL (≈ 2.6 µM)
- MIC (E. faecalis GC 2265; GC2265, read-out: MINIMAL INHIBITORY CONCENTRATION MIC, Mouse Serum): 1 µg/mL (≈ 1.3 µM)
- MIC (E. faecalis GC 2265; GC2265, read-out: MINIMAL INHIBITORY CONCENTRATION MIC, Water): 4 µg/mL (≈ 5.2 µM)
- MIC (S. aureus GC 6469; GC6469, read-out: MINIMAL INHIBITORY CONCENTRATION MIC, Human Serum): 1 µg/mL (≈ 1.3 µM)
- MIC (S. aureus GC 6469; GC6469, read-out: MINIMAL INHIBITORY CONCENTRATION MIC, Mouse Serum): 1 µg/mL (≈ 1.3 µM)
- MIC (S. aureus GC 6469; GC6469, read-out: MINIMAL INHIBITORY CONCENTRATION MIC, Water): 2 µg/mL (≈ 2.6 µM)
- MIC (E. coli GC 2233; GC2233, read-out: MINIMAL INHIBITORY CONCENTRATION MIC, Human Serum): 8 µg/mL (≈ 10.4 µM)
- MIC (E. coli GC 2233; GC2233, read-out: MINIMAL INHIBITORY CONCENTRATION MIC, Mouse Serum): 1 µg/mL (≈ 1.3 µM)
- MIC (E. coli GC 2233; GC2233, read-out: MINIMAL INHIBITORY CONCENTRATION MIC, Water): 32 µg/mL (≈ 41.6 µM)
- MIC (E. faecium GC 4556; GC4556, read-out: MINIMAL INHIBITORY CONCENTRATION MIC, Human Serum): 1 µg/mL (≈ 1.3 µM)
- MIC (E. faecium GC 4556; GC4556, read-out: MINIMAL INHIBITORY CONCENTRATION MIC, Mouse Serum): 1 µg/mL (≈ 1.3 µM)
- MIC (E. faecium GC 4556; GC4556, read-out: MINIMAL INHIBITORY CONCENTRATION MIC, Water): 2 µg/mL (≈ 2.6 µM)
- MIC (E. coli GC 1073; GC1073, read-out: MINIMAL INHIBITORY CONCENTRATION MIC, Human Serum): 8 µg/mL (≈ 10.4 µM)
- MIC (E. coli GC 1073; GC1073, read-out: MINIMAL INHIBITORY CONCENTRATION MIC, Mouse Serum): 2 µg/mL (≈ 2.6 µM)
- MIC (E. coli GC 1073; GC1073, read-out: MINIMAL INHIBITORY CONCENTRATION MIC, Water): 32 µg/mL (≈ 41.6 µM)
- MIC (E. faecium GC 2243; GC2243, read-out: MINIMAL INHIBITORY CONCENTRATION MIC, Human Serum): 0.25 µg/mL (≈ 0.325 µM)
- MIC (E. faecium GC 2243; GC2243, read-out: MINIMAL INHIBITORY CONCENTRATION MIC, Mouse Serum): 0.25 µg/mL (≈ 0.325 µM)
- MIC (E. faecium GC 2243; GC2243, read-out: MINIMAL INHIBITORY CONCENTRATION MIC, Water): 0.5 µg/mL (≈ 0.649 µM)
- MIC (E. faecalis GC 4555; GC4555, read-out: MINIMAL INHIBITORY CONCENTRATION MIC, Human Serum): 2 µg/mL (≈ 2.6 µM)
- MIC (E. faecalis GC 4555; GC4555, read-out: MINIMAL INHIBITORY CONCENTRATION MIC, Mouse Serum): 1 µg/mL (≈ 1.3 µM)
- MIC (E. faecalis GC 4555; GC4555, read-out: MINIMAL INHIBITORY CONCENTRATION MIC, Water): 4 µg/mL (≈ 5.2 µM)
- MIC (S. pyogenes GC 4563; GC4563, read-out: MINIMAL INHIBITORY CONCENTRATION MIC, Human Serum): 0.12 µg/mL (≈ 0.156 µM)
- MIC (S. pyogenes GC 4563; GC4563, read-out: MINIMAL INHIBITORY CONCENTRATION MIC, Mouse Serum): 0.12 µg/mL (≈ 0.156 µM)
- MIC (S. pyogenes GC 4563; GC4563, read-out: MINIMAL INHIBITORY CONCENTRATION MIC, Water): 0.25 µg/mL (≈ 0.325 µM)
- MIC (E. coli GC 2236; GC2236, read-out: MINIMAL INHIBITORY CONCENTRATION MIC, Human Serum): 8 µg/mL (≈ 10.4 µM)
- MIC (E. coli GC 2236; GC2236, read-out: MINIMAL INHIBITORY CONCENTRATION MIC, Mouse Serum): 1 µg/mL (≈ 1.3 µM)
- MIC (E. coli GC 2236; GC2236, read-out: MINIMAL INHIBITORY CONCENTRATION MIC, Water): 32 µg/mL (≈ 41.6 µM)
- MIC (S. typhimurium GC 2172; read-out: MINIMAL INHIBITORY CONCENTRATION MIC, Human Serum): 32 µg/mL (≈ 41.6 µM)
- MIC (S. typhimurium GC 2172; read-out: MINIMAL INHIBITORY CONCENTRATION MIC, Mouse Serum): 4 µg/mL (≈ 5.2 µM)
- MIC (S. typhimurium GC 2172; read-out: MINIMAL INHIBITORY CONCENTRATION MIC, Water): > 64 µg/mL
- MIC (Staph.; MRSA, read-out: Range of MIC, Staph (Mouse Serum)): 0.25 to 2 µg/mL (≈ 0.325 to 2.6 µM)
- MIC (Staph.; MRSA, read-out: Range of MIC, Staph (Water)): 0.25 to 4 µg/mL (≈ 0.325 to 5.2 µM)
- MIC (Staph.; read-out: Minimum inhibitory concentration (MIC), Staph (Human Serum)): 0.25 to 2 µg/mL (≈ 0.325 to 2.6 µM)
- MIC (Staph.; read-out: Minimum inhibitory concentration (MIC), Staph (Water)): 0.25 to 4 µg/mL (≈ 0.325 to 5.2 µM)
- MIC (S. aureus GC 1079; GC1079, read-out: MINIMAL INHIBITORY CONCENTRATION MIC, Human Serum): 0.5 µg/mL (≈ 0.649 µM)
- MIC (S. aureus GC 1079; GC1079, read-out: MINIMAL INHIBITORY CONCENTRATION MIC, Mouse Serum): 0.5 µg/mL (≈ 0.649 µM)
- MIC (S. aureus GC 1079; GC1079, read-out: MINIMAL INHIBITORY CONCENTRATION MIC, Water): 2 µg/mL (≈ 2.6 µM)
- MIC (E. coli GC 2270; GC2270, read-out: MINIMAL INHIBITORY CONCENTRATION MIC, Human Serum): 8 µg/mL (≈ 10.4 µM)
- MIC (E. coli GC 2270; GC2270, read-out: MINIMAL INHIBITORY CONCENTRATION MIC, Mouse Serum): 1 µg/mL (≈ 1.3 µM)
- MIC (E. coli GC 2270; GC2270, read-out: MINIMAL INHIBITORY CONCENTRATION MIC, Water): 32 µg/mL (≈ 41.6 µM)
- MIC (E. coli; 20 h, read-out: Range of MIC, E. coli (Mouse Serum)): 1 to 2 µg/mL (≈ 1.3 to 2.6 µM)
- MIC (E. coli; read-out: Minimum inhibitory concentration (MIC), E. coli (Human Serum)): 4 to 16 µg/mL (≈ 5.2 to 20.8 µM)
- MIC (E. coli; read-out: Minimum inhibitory concentration (MIC), E. coli (water)): 32 to 64 µg/mL (≈ 41.6 to 83.1 µM)
- MIC (E. coli; read-out: Range of MIC, E. coli (Water)): 32 to 64 µg/mL (≈ 41.6 to 83.1 µM)
- MIC (c. albicans GC 3066; Candida albicans, GC3066, read-out: MINIMAL INHIBITORY CONCENTRATION MIC): > 64 µg/mL
- MINIMAL INHIBITORY CONCENTRATION MIC (c. albicans GC 3066; Human Serum): >64 UG/ML
- MINIMAL INHIBITORY CONCENTRATION MIC (c. albicans GC 3066; Mouse Serum): >64 UG/ML
- MIC (S. aureus GC 6335; GC6335, read-out: MINIMAL INHIBITORY CONCENTRATION MIC, Human Serum): 1 µg/mL (≈ 1.3 µM)
- MIC (S. aureus GC 6335; GC6335, read-out: MINIMAL INHIBITORY CONCENTRATION MIC, Mouse Serum): 1 µg/mL (≈ 1.3 µM)
- MIC (S. aureus GC 6335; GC6335, read-out: MINIMAL INHIBITORY CONCENTRATION MIC, Water): 1 µg/mL (≈ 1.3 µM)
- MIC (E. coli GC 2271; GC2271, read-out: MINIMAL INHIBITORY CONCENTRATION MIC, Human Serum): 4 µg/mL (≈ 5.2 µM)
- MIC (E. coli GC 2271; GC2271, read-out: MINIMAL INHIBITORY CONCENTRATION MIC, Mouse Serum): 1 µg/mL (≈ 1.3 µM)
- MIC (E. coli GC 2271; GC2271, read-out: MINIMAL INHIBITORY CONCENTRATION MIC, Water): 32 µg/mL (≈ 41.6 µM)
- MIC (E. coli GC 2235; GC2235, read-out: MINIMAL INHIBITORY CONCENTRATION MIC, Human Serum): 4 µg/mL (≈ 5.2 µM)
- MIC (E. coli GC 2235; GC2235, read-out: MINIMAL INHIBITORY CONCENTRATION MIC, Mouse Serum): 1 µg/mL (≈ 1.3 µM)
- MIC (E. coli GC 2235; GC2235, read-out: MINIMAL INHIBITORY CONCENTRATION MIC, Water): 32 µg/mL (≈ 41.6 µM)
- MIC (S. agalactiae GC 4564; GC4564, read-out: MINIMAL INHIBITORY CONCENTRATION MIC, Human Serum): 0.25 µg/mL (≈ 0.325 µM)
- MIC (S. agalactiae GC 4564; GC4564, read-out: MINIMAL INHIBITORY CONCENTRATION MIC, Mouse Serum): 0.25 µg/mL (≈ 0.325 µM)
- MIC (S. agalactiae GC 4564; GC4564, read-out: MINIMAL INHIBITORY CONCENTRATION MIC, Water): 0.25 µg/mL (≈ 0.325 µM)
- MIC (E. coli GC 3226; GC3226, read-out: MINIMAL INHIBITORY CONCENTRATION MIC, Human Serum): 8 µg/mL (≈ 10.4 µM)
- MIC (E. coli GC 3226; GC3226, read-out: MINIMAL INHIBITORY CONCENTRATION MIC, Mouse Serum): 1 µg/mL (≈ 1.3 µM)
- MIC (E. coli GC 3226; GC3226, read-out: MINIMAL INHIBITORY CONCENTRATION MIC, Water): 32 µg/mL (≈ 41.6 µM)
